Entries after “also recorded” stand apart in the source; their conditions may differ.
Columns and labels:
spinal cord white matter = assay: Area of residual white matter at the lesion epicenter (Luxol fast blue); assay type: in vivo, mouse; details: 42 days post injury, GM6001 vs vehicle, P=0.01
Method: (§1) Adult, male mice (4-6 months of age), were anesthetized with 2.5% Avertin (0.02 ml/g bw, i.p.) and maintained at 37° C. throughout the experiment by using a warming blanket placed under the animal. A contusive injury was performed based upon modifications of procedures originally described by Kuhn and Wrathall (1998) J. Neurotrauma 15:125-140. Briefly, using aseptic techniques the spinous process and laminae of T8 were removed and a circular region of dura, approximately 2.4 mm in diameter, was exposed. After stabilization of the vertebral column, a 2 gm weight was dropped 5.0 cm onto the exposed dura. After injury, the overlying skin was closed with wound clips. Postoperative care included manual expression of each animal's bladder until recovery of reflex emptying.
Wild type mice were subjected to spinal cord injury as described in the previous section. All mice were treated with either GM 6001 (AMS Scientific, Inc., Concord, Calif. 100 mg/kg in 4% methylcellulose, i.p.), a general inhibitor of MMPs, or vehicle (4% methylcellulose, i.p.), at 3 hours post injury. […]
The area of residual white matter at the epicenter was determined in vehicle-and drug-treated wild type mice at 42 days post injury. […] These sections were captured with a Spotcam camera mounted on a Nikon Optiphot and analyzed using Photoshop 6.0™. […] These pixels were quantified and expressed per unit area.

neutrophils = assay: Neutrophil infiltration into the lesion (chloroacetate esterase stain) after spinal cord injury; assay type: in vivo, mouse; details: 24 hours post injury; GM6001 N=4 vs vehicle N=4; P=0.01
Method: as §1, with “emptying. […]” for “emptying.”
The protocol was as described by the manufacturer with several exceptions. […] The number of neutrophils within each of these sections was determined from digital images, captured with a CCD camera, as described in the preceding paragraph at 40×magnification. […] Only darkly stained structures, greater than 38 μm^2 (7 μm in diameter) were counted. For the rostral and caudal sections, the numbers of neutrophils within the entire cross sections were determined and summed. For the epicenter, neutrophils were quantified within specific regions of the cross section. […]

spinal cord injured mice = assay: Locomotor recovery after spinal cord injury, open field BBB Locomotor Rating Scale; assay type: in vivo, mouse; details: over 6 weeks post injury, GM6001 N=9 vs vehicle N=4, treatment 3 hours to 3 days post injury
Method: as §1, with “A contusive injury was performed based upon modifications of procedures originally described by Kuhn and Wrathall (1998) J. Neurotrauma 15:125-140.” left out
(§2) Wild type mice were subjected to spinal cord injury as described in the previous section. […] Animals were treated every 12 hours (100 mg/kg in 4% methylcellulose, i.p.), for the first 3 days post injury.
This scale assesses 10 distinct categories that range from limb movement to tail position and involve detailed observations of joint movement, stepping, and coordination. […] Spinal cord injured animals were tested on days 1 and 3 post injury and weekly thereafter for 6 weeks. […] Positioning of the limbs and locomotion was then observed by either directly or indirectly (via the mirror) viewing the animal.

[1] = system: blood-spinal cord barrier; assay: Blood-spinal cord barrier permeability to horseradish peroxidase (HRP) after contusive spinal cord injury; assay type: in vivo, mouse; details: 24 hours post injury, GM 6001 100 mg/kg i.p. from 3 hours post injury, compared to wild type; for blood-spinal cord barrier permeability to HRP at the lesion epicenter: wild type mice, every 12 hours
Method: as §1, with “A contusive injury was performed based upon modifications of procedures originally described by Kuhn and Wrathall (1998) J. Neurotrauma 15:125-140.” left out
as §2

[2] = system: blood-spinal cord barrier; assay: Blood-spinal cord barrier permeability to luciferase after spinal cord injury; assay type: in vivo, mouse; details: 24 hours post injury, GM6001 begun at 3 hours after injury, N=6, vs vehicle N=4, P=0.04
Method: as §1, with “A contusive injury was performed based upon modifications of procedures originally described by Kuhn and Wrathall (1998) J. Neurotrauma 15:125-140.” left out
as §2

[3] = system: MMP-9 and other gelatinases; assay: Gelatin zymography of injured spinal cord extracts with metalloproteinase inhibitor control; assay type: biochemical, mouse; details: substrate gels incubated with 4 mM 1,10-phenanthroline
Method: Samples of spinal cord, prepared from the epicenter, were quick-frozen at −80° C. Each sample was weighed and homogenized in (1:4 weight to volume) in lysis buffer containing 50 mM Tris-HCl (pH 8.0), 150 mM NaCl, 1% NP-40, 0.5% deoxycholate, 0.1% SDS. Soluble and insoluble extracts were separated by centrifugation and stored at −20° C. Equal amounts of the supernatant were analyzed by gel zymography as previously described (Herron et al., 1986) on 10% SDS-polyacrylamide gels, copolymerized with substrate (1 mg/ml gelatin). The proteins were renatured by incubation in 2.5% Triton-X100, and then incubated in substrate buffer (50 mM Tris-HCl, […]) for 24 to 36 hours at 37° C. to enable the MMP-9 and other gelatinases to cleave the gelatin. After rinsing in water, each gel was stained with Coomassie Blue for 4 hours and destained in 50% methanol. Negative staining is indicative of the location of active protease bands. After exposure to SDS during gel separation, proenzymes, present in tissue extracts, are activated without proteolytic cleavage. To inhibit MMP proteolytic activities, substrate gels were incubated in substrate buffer with 4 mM 1,10-phenanthroline (Sigma, St. Louis, Mo.), as described (Adler et al. 1990) Development 110:211-220). This control ensured that the measured activity corresponded to matrix metalloproteinase activity. […]

| Compound | area of residual white matter at the lesion epicenter (spinal cord white matter) | area of residual white matter at the lesion epicenter (spinal cord white matter; listed as GM 6001) | numbers of neutrophils within the lesion epicenter (neutrophils) | locomotor recovery (BBB Locomotor Rating Scale, 21 point scale) (spinal cord injured mice) | locomotor recovery (BBB Locomotor Rating Scale, 21 point scale) (spinal cord injured mice; listed as GM 6001) | axial distribution of abnormal barrier permeability to HRP (segments rostral and caudal to the lesion) [1] | blood-spinal cord barrier permeability to HRP at the lesion epicenter ([1]; 100 mg/kg) | blood-spinal cord barrier permeability to HRP at the lesion epicenter ([1]; listed as GM 6001, 100 mg/kg) | abnormal barrier permeability to luciferase in the epicenter [2] | abnormal barrier permeability to luciferase in the epicenter ([2]; listed as GM 6001) | gelatinolytic activity (inactive and active forms of MMP-9 and MMP-2) in gelatin zymography [3] |
| --- | --- | --- | --- | --- | --- | --- | --- | --- | --- | --- | --- |
| CNC(=O)[C@H](Cc1c[nH]c2ccccc12)NC(=O)[C@@H](CC(=O)NO)CC(C)C [GM6001] | significantly greater preservation of white matter | significant preservation of white matter | significant reduction in the numbers of neutrophils | greater locomotor | significant locomotor recovery as early as 3 days post injury and weekly thereafter | not observed | marked increase in permeability to HRP in the wild type mice as compared to | only light patches of HRP reaction product in the epicenter | significant reduction in barrier permeability | significantly attenuated | – |
| c1cnc2c(c1)ccc1cccnc12 [1,10 phenanthroline, 1,10-phenanthroline] | – | – | – | – | – | – | – | – | – | – | completely blocked the gelatinolytic activity; also recorded: completely blocks the inactive and active forms |

Source: patent publication US20030139332A1, “Use of matrix metalloproteinase inhibitors to mitigate nerve damage” (The Regents of the University of California, priority 2001, published 2003)
